Data taken from US20250136555A1 (HARBIN MEDISAN PHARMACEUTICAL CO., LTD., priority 2022, published 2025).
Like-named read-outs stand apart in the source and are kept apart here.

Tests used:
PPARα = target: T1, PPARα (Homo sapiens, UniProt Q07869); experiment: GAL4 hybrid reporter gene method, PPARα agonistic activity; format: cell-based; conditions: Cos-7 cells, Gal4-PPARα (LBD); GW7647 10 nM = 100%; 16 h
T1 construct: expressed in transfected cells; host or cells: COS-7
T1 sequence (Q07869 239-466 limits assumed): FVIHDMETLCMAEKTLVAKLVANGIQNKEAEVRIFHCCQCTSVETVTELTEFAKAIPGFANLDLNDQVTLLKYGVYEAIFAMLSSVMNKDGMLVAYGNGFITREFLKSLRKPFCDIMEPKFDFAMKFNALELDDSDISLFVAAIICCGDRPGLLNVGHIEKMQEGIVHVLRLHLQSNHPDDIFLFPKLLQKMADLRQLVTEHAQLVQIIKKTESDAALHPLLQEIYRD
Procedure: (§1) Cos-7 cells (African green monkey kidney fibroblasts, commonly used tool cells) were cultured in a 10-cm cell culture dish with a DMEM complete medium containing 10% fetal bovine serum. When growing at a density of about 70%, the cells were ready for transfection. […] The working solution described above was then combined with 8 mL of the DMEM complete medium, and the mixture was added to the cell culture dish for cell transfection. After 4 h of transfection, the cells were digested, resuspended, and seeded into a 96-well plate at 25,000 cells/well. […] 10 μL of a reporter gene detection solution (purchased from Shanghai Beyotime Biological Tech. Co., Ltd.) was added. After the resulting solution was mixed and reacted, biological fluorescence was detected by using a multifunctional microplate reader, and corresponding half maximal effective concentration (EC50) values were calculated according to the detection values. […] Transfection working solutions for different nuclear receptors were prepared and added into COS-7 cells. The preparation method for the transfection working solution was as follows: the constructed pBIND-Gal4-PPARα (LBD) (or pBIND-Gal4-PPARδ (LBD) plasmid or pBIND-Gal4-PPARγ (LBD) plasmid or pBIND-Gal4-RARα (LBD) plasmid or pBIND-Gal4-RARγ (LBD) plasmid or pBIND-Gal4-RARβ (LBD) plasmid or pBIND-Gal4-RORα (LBD) plasmid or pBIND-Gal4-RORγ (LBD) plasmid or pBIND-Gal4-RORβ (LBD) plasmid or pBIND-Gal4-FXR (LBD) plasmid or pBIND-Gal4-RXRα.

PPARγ = target: T2, PPARγ (Homo sapiens, UniProt P37231); experiment: GAL4 hybrid reporter gene method, PPARγ agonistic activity; format: cell-based
T2 construct: expressed in transfected cells; host or cells: COS-7
T2 sequence (P37231 238-503 limits assumed): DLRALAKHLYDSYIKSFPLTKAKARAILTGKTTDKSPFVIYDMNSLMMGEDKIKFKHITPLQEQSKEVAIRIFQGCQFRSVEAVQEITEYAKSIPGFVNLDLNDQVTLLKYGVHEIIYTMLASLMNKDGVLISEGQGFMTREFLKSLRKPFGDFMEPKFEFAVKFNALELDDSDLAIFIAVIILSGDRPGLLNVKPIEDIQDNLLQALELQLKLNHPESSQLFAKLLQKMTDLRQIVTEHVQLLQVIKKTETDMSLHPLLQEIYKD
Procedure: as §1

PPARδ = target: T3, PPARδ (Homo sapiens, UniProt Q03181); experiment: GAL4 hybrid reporter gene method, PPARδ agonistic activity; format: cell-based
T3 construct: expressed in transfected cells; host or cells: COS-7
T3 sequence (Q03181 211-439 limits assumed): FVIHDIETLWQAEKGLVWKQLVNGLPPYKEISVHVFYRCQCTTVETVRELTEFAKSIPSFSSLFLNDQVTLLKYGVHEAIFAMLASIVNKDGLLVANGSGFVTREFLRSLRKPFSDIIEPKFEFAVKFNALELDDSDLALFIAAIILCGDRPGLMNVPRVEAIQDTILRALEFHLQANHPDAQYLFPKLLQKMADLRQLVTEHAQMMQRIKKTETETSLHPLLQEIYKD
Procedure: as §1

[1] = NCT02704403; cited from earlier work
[2] = Metabolic stability in human liver microsomes; format: in vitro ADME; conditions: human liver microsomes 0.75 mg/mL, NADPH
Procedure: A solution of the compound in acetonitrile at a concentration of 500 μM was prepared and diluted in 0.1 M potassium phosphate solution to obtain a 1.5 μM drug working solution. The drug working solution was co-incubated with a human liver microsome working solution at a final concentration of 0.75 mg/mL and a NADPH solution (at a final concentration of 550 μM), and the incubation was terminated by adding an acetonitrile solution at 0 min, 15 min, 30 min, 45 min, and 60 min, respectively. The remaining amount of the compound remained in the system at each time point was detected by using LC/MS, the absolute value k of the slope was measured by plotting the natural logarithm of the percentage of the remaining amount of the compound over time, and the calculation was performed according to the formula: T1/2 (half-life)=ln2/k=0.693/k.

[3] = Cos-7 cells, Gal4-PPARδ (LBD), GW501516 10 nM = 100%, 16 h
[4] = Cos-7 cells, Gal4-PPARγ (LBD), Rosiglitazone 1 μM = 100%, 16 h

EC50 (PPARα)	EC50 (PPARγ)	EC50 (PPARδ)	SMILES	also measured
0.0099 µM	> 5 µM	0.019 µM	CC(C)(Oc1c(F)cc(CN2C(=O)CN(c3ccc(C(F)(F)F)cc3)C2=O)cc1Cl)C(=O)O [Compound 47, 2-(2-Chloro-4-((2,5-dioxo-3-(4-(trifluoromethyl)phenyl)imidazolin-1-yl)methyl)-6-fluorophenoxy)-2-methylpropionic Acid]	–
0.0899 µM	> 5 µM	0.0401 µM	CC(C)(Oc1ccc(CN2C(=O)CN(c3ccc(C(F)(F)F)cc3)C2=O)cc1Cl)C(=O)O [Compound 51, 2-(4-((2,5-Dioxo-3-(4-(trifluoromethyl)phenyl)imidazolin-1-yl)methyl)-2-chlorophenoxy)-2-methylpropionic Acid]	–
0.325 µM	> 5 µM	–	Cc1cc(CN2C(=O)CN(c3ccc(C(F)(F)F)cc3)C2=O)cc(C)c1OCC(=O)O [Compound 53, 2-(4-((2,5-Dioxo-3-(4-(trifluoromethyl)phenyl)imidazolin-1-yl)methyl)-2,6-dimethylphenoxy)acetic Acid]	EC50 (PPARδ; [3]): 0.175 µM
0.0821 µM	2.96 µM	0.024 µM	CC(C)(Oc1ccc(CN2C(=O)CN(c3ccc(C(F)(F)F)cc3)C2=O)cc1OC(F)(F)F)C(=O)O [Compound 55, 2-(4-((2,5-Dioxo-3-(4-(trifluoromethyl)phenyl)imidazolin-1-yl)methyl)-2-(trifluoromethoxy)phenoxy)-2-methylpropionic Acid]	–
0.0467 µM	–	–	Cc1cc(CN2C(=O)CN(c3ccc(C(F)(F)F)cc3)C2=O)ccc1OC(C)(C)C(=O)O [Compound 57, 2-(4-((2,5-Dioxo-3-(4-(trifluoromethyl)phenyl)imidazolin-1-yl)methyl)-2-(methyl)phenoxy)-2-methylpropionic Acid]	EC50 (PPARγ; [4]): 2.72 µM; EC50 (PPARδ; [3]): 0.0192 µM
0.277 µM	> 5 µM	–	CC(C)(Oc1ccc(CN2C(=O)CN(c3ccc(C(F)(F)F)cc3)C2=O)cc1)C(=O)O [Compound 59, 2-(4-((2,5-Dioxo-3-(4-(trifluoromethyl)phenyl)imidazolin-1-yl)methyl)phenoxy)-2-methylpropionic Acid]	EC50 (PPARδ; [3]): 0.359 µM
0.0141 µM	1.92 µM	0.0034 µM	CCC(Oc1c(C)cc(CN2C(=O)CN(c3ccc(C(F)(F)F)cc3)C2=O)cc1C)C(=O)O (stereo not shown) [Compound 67, 2-(4-((2,5-Dioxo-3-(4-(trifluoromethyl)phenyl)imidazolin-1-yl)methyl)-2,6-dimethylphenoxy)butyric Acid]	–
1.09 µM	> 5 µM	> 5 µM	Cc1cc(CN2C(=O)CN(c3ccc(S(C)(=O)=O)cc3)C2=O)cc(C)c1OC(C)(C)C(=O)O [Compound 71, 2-(2,6-Dimethyl-4-((3-(4-(methylsulfonyl)phenyl)-2,5-dioxoimidazolin-1-yl)methyl)phenoxy)-2-methylpropionic Acid]	–
0.0024 µM	2.12 µM	0.031 µM	COc1cc(CN2C(=O)CN(c3ccc(C(F)(F)F)cc3)C2=O)cc(Cl)c1OC(C)(C)C(=O)O [Compound 73, 2-(2-Chloro-4-((2,5-dioxo-3-(4-(trifluoromethyl)phenyl)imidazolin-1-yl)methyl)-6-methoxyphenoxy)-2-methylpropionic Acid]	–
0.0741 µM	3.19 µM	0.0253 µM	CC(C)(Oc1ccc(CN2C(=O)CN(c3ccc(C(F)(F)F)cc3)C2=O)cc1Br)C(=O)O [Compound 77, 2-(2-Bromo-4-((2,5-dioxo-3-(4-trifluoromethyl)phenyl)imidazolidin-1-yl)methylphenoxy)-2-methylpropionic Acid]	–
0.165 µM	> 5 µM	–	Cc1cc(CN2CC(=O)N(c3ccc(C(F)(F)F)cc3)C2=O)cc(C)c1OC(C)(C)C(=O)O [Compound 81, 2-(4-((2,4-Dioxo-3-(4-(trifluoromethyl)phenyl)imidazolidin-1-yl)methyl)-2,6-dimethylphenoxy)-2-methylpropionic Acid]	EC50 (PPARδ; [3]): 0.0821 µM
0.0793 µM	–	–	Cc1cc(CN2C(=O)N(c3ccc(C(F)(F)F)cc3)C(=O)C2(C)C)cc(C)c1OC(C)(C)C(=O)O [Compound 83]	EC50 (PPARγ; [4]): 1.68 µM; EC50 (PPARδ; [3]): 0.0065 µM
0.0179 µM	2.72 µM	–	Cc1cc(CCN2C(=O)CN(c3ccc(C(F)(F)F)cc3)C2=O)cc(C)c1OC(C)(C)C(=O)O [Compound 85, 2-(4-(2-(2,5-Dioxo-3-(4-(trifluoromethyl)phenyl)imidazolidin-1-yl)ethyl)-2,6-dimethylphenoxy)-2-methylpropionic Acid]	EC50 (PPARδ; [3]): 0.0044 µM
0.353 µM	3.4 µM	0.352 µM	Cc1cc(CCN2CC(=O)N(c3ccc(C(F)(F)F)cc3)C2=O)cc(C)c1OC(C)(C)C(=O)O [Compound 87, 2-(4-(2-(2,4-Dioxo-3-(4-(trifluoromethyl)phenyl)imidazolin-1-yl)ethyl)-2,6-dimethylphenoxy)-2-methylpropionic Acid]	–
0.067 µM	–	–	Cc1cc(CCCN2C(=O)CN(c3ccc(C(F)(F)F)cc3)C2=O)cc(C)c1OC(C)(C)C(=O)O [Compound 89, 2-(4-(3-(2,5-Dioxo-3-(4-(trifluoromethyl)phenyl)imidazolidin-1-yl)propyl)-2,6-dimethylphenoxy)-2-methylpropionic Acid]	EC50 (PPARγ; [4]): 0.628 µM; EC50 (PPARδ; [3]): 0.0203 µM
0.038 µM	2.69 µM	0.632 µM	Cc1cc(CCCN2CC(=O)N(c3ccc(C(F)(F)F)cc3)C2=O)cc(C)c1OC(C)(C)C(=O)O [Compound 91, 2-(4-(3-(2,4-Dioxo-3-(4-(trifluoromethyl)phenyl)imidazolidin-1-yl)propyl)-2,6-dimethylphenoxy)-2-methylpropionic Acid]	–
0.0109 µM	1.33 µM	0.0669 µM	CCOc1ccc(N2CC(=O)N(Cc3cc(C)c(OC(C)(C)C(=O)O)c(C)c3)C2=O)cc1 [Compound 95]	–
0.209 µM	2.89 µM	1.4 µM	COc1cc(CN2C(=O)CN(c3ccc(C(F)(F)F)cc3)C2=O)ccc1OC(C)(C)C(=O)O [Compound 97]	–
0.402 µM	> 5 µM	> 5 µM	Cc1cc(CN2C(=O)CN(c3ccc(C=O)cc3)C2=O)cc(C)c1OC(C)(C)C(=O)O [Compound 99]	–
0.001 µM	0.313 µM	0.0102 µM	Cc1cc(CN2C(=O)CN(c3ccc(C4CC4)cc3)C2=O)cc(C)c1OC(C)(C)C(=O)O [Compound 101]	PPARα EC50 (nM) (PPARα): low nanomolar levels; PPARδ EC50 (nM) (PPARδ; [3]): low nanomolar levels
0.102 µM	0.474 µM	0.0976 µM	Cc1cc(CN2C(=O)CN(c3cccc(F)c3)C2=O)cc(C)c1OC(C)(C)C(=O)O [Compound 103]	–
0.0219 µM	0.165 µM	0.0405 µM	Cc1cc(CN2C(=O)CN(c3ccc(F)c(Cl)c3)C2=O)cc(C)c1OC(C)(C)C(=O)O [Compound 105]	–
0.105 µM	0.652 µM	0.0475 µM	Cc1cc(CN2C(=O)CN(c3cccc(Cl)c3)C2=O)cc(C)c1OC(C)(C)C(=O)O [Compound 107]	–
0.0317 µM	0.363 µM	0.0151 µM	Cc1cc(CN2C(=O)CN(c3cccc(OC(F)(F)F)c3)C2=O)cc(C)c1OC(C)(C)C(=O)O [Compound 109]	–
0.82 µM	–	–	CSc1ccc(C(=O)/C=C/c2cc(C)c(OC(C)(C)C(=O)O)c(C)c2)cc1 [GFT505, Elafibranor, reference compound]	EC50 (PPARγ; [4]): 1.84 µM; interim analysis result of phase III clinical trial against NASH [1]: substantially ineffective; CLint scaled [2]: 116 mL/min/kg; half-life [2]: 15 min
